Reference: US20240360114A1 (SIRONAX LTD., priority 2021, published 2024)

System: HT-1080 cells
Test: HT-1080 cell viability assay (ferroptosis induced by RSL3, Cell Titer-Glo)
Type: cell-based
Conditions: Homo sapiens, ferroptosis inducer RSL3, 20 hours, ferroptosis inhibitory activity, Table 2
How it was run: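 EC50 fitted by sigmoidal dose-response regression on luminescent viability data normalized to untreated cells. Compounds ran as a 10-point, 3-fold series from 1.1 μM alongside RSL3 for 20 hours, after overnight seeding.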

Structure (SMILES)	EC50 (HT-1080, 20 h) [nM]	EC50 [nM]
CC1(C)CCc2cc(NC3CCC(N)CC3)ccc21 (centres unmarked) [Compound 330A, N1-(1,1-dimethyl-2,3-dihydro-1H-inden-5-yl)cyclohexane-1,4-diamine]	0.1 to 100	
Cc1cc(C)cc(NC2CCC(N)CC2)c1 (centres unmarked) [Compound 331, N1-(3,5-dimethylphenyl)cyclohexane-1,4-diamine]	100 to 1000	
CCC(C)(C)c1ccc(NC2CC(CN)C2)cc1 (centres unmarked) [Compound 333, N-(3-(aminomethyl)cyclobutyl)-4-(tert-pentyl)aniline]	0.1 to 100	
CC1CCC(Nc2ccc(C(C)(C)C)cc2)CC1 (centres unmarked) [Compound 334, 4-(tert-butyl)-N-(4-methylcyclohexyl)aniline]	100 to 1000	
CC(C)(C)c1ccc(NCCC2CCC(N)CC2)cc1 (centres unmarked) [Compound 336A, N-(2-(4-aminocyclohexyl)ethyl)-4-(tert-butyl)aniline]		0.1 to 100
CC1(C)CCCc2cc(NC3CCC(N)CC3)ccc21 (centres unmarked) [Compound 337A, 1-N-(5,5-dimethyl-5,6,7,8-tetrahydronaphthalen-2-yl)cyclohexane-1,4-diamine]	0.1 to 100	
CC1(C)CCC(C)(C)c2cc(NC[C@H]3CC[C@H](N)CC3)ccc21 [Compound 338, N-(((1r,4r)-4-aminocyclohexyl)methyl)-5,5,8,8-tetramethyl-5,6,7,8-tetrahydronaphthalen-2-amine]	0.1 to 100	
CC1(CN)CCC(Nc2ccc(C(C)(C)C)cc2)CC1 (centres unmarked) [Compound 339, N-(4-(aminomethyl)-4-methylcyclohexyl)-4-(tert-butyl)aniline]	0.1 to 100	
CC(C)(C)c1ccc(NCC2CCC(CN)C2)cc1 (centres unmarked) [Compound 340, N-((3-(aminomethyl)cyclopentyl)methyl)-4-(tert-butyl)aniline]	0.1 to 100	
C[C@@H](O)[C@H](N)CNC1CCC(Nc2ccc(C(C)(C)C)cc2)CC1 (stereo partly drawn) [Compound 341, (2R, 3R)-3-amino-4-((4-((4-(tert-butyl)phenyl)amino)cyclohexyl)amino) butan-2-ol]	0.1 to 100	
CCC(C)(C)c1ccc(NC[C@H]2CC[C@H](N)CC2)cc1 [Compound 342, N-(((1r,4r)-4-aminocyclohexyl)methyl)-4-(tert-pentyl)aniline]	0.1 to 100	
CN1CC(C)(C)c2ccc(NC3CCC(N)CC3)cc21 (centres unmarked) [Compound 343, N1-(1,3,3-trimethylindolin-6-yl)cyclohexane-1,4-diamine]	0.1 to 100	
CC(C)(C)c1ccc(NC2CCC(CNC(=N)N)CC2)cc1 (centres unmarked) [Compound 344, 1-((4-((4-(tert-butyl)phenyl)amino)cyclohexyl)methyl)guanidine]	0.1 to 100	
CC(C)(C)c1ccc(N[C@@H]2C[C@H](N)C[C@H](N)C2)cc1 [Compound 345, (1s,3R,5S)-N1-(4-(tert-butyl)phenyl)cyclohexane-1,3,5-triamine]	100 to 1000	
Cn1cc(NCC2CCC(Nc3ccc(C(C)(C)C)cc3)CC2)cn1 (centres unmarked) [Compound 346, N-((4-((4-(tert-butyl)phenyl)amino)cyclohexyl)methyl)-1-methyl-1H-pyrazol-4-amine]	0.1 to 100	
[2H]C1([2H])CC(N)CC([2H])([2H])C1([2H])Nc1ccc(C(C)(C)C)cc1 (centres unmarked) [Compound 347, N1-(4-(tert-butyl)phenyl)cyclohexane-1,2,2,6,6-d5-1,4-diamine]	0.1 to 100	
CC(C)(C)c1ccc(NC2CCC(CNc3cn[nH]c3)CC2)cc1 (centres unmarked) [Compound 348, N-((4-((4-(tert-butyl)phenyl)amino)cyclohexyl)methyl)-1H-pyrazol-4-amine]	0.1 to 100	
CC(C)(C)c1ccc(NC2CCC(NCC(O)CN)CC2)cc1 (centres unmarked) [Compound 349A, 1-amino-3-((4-((4-(tert-butyl)phenyl)amino)cyclohexyl)amino)propan-2-ol]	0.1 to 100	
CC(Nc1ccc(C(C)(C)C)cc1)[C@H]1CC[C@H](N)CC1 (stereo partly drawn) [Compound 350, N—((S)-1-((1r,4S)-4-aminocyclohexyl)ethyl)-4-(tert-butyl)aniline]	0.1 to 100	
CC(C)(C)c1ccc(N[C@@H]2C[C@H](N)C[C@H](Nc3ccc(C(C)(C)C)cc3)C2)cc1 [Compound 351, (1R, 3S,5r)-N1,N3-bis(4-(tert-butyl)phenyl)cyclohexane-1,3,5-triamine]	0.1 to 100	
COCCc1ccc(NC2CCC(N)CC2)cc1CCOC (centres unmarked) [Compound 352, N1-(3,4-bis(2-methoxyethyl)phenyl)cyclohexane-1,4-diamine]	1000 to 10000	
CC(C)Oc1ccc(NC[C@H]2CC[C@H](N)CC2)cc1 [Compound 353, N-(((1r,4r)-4-aminocyclohexyl)methyl)-4-isopropoxyaniline]	0.1 to 100	

Structure (SMILES)	EC50 (HT-1080, 20 h) [nM]	EC50 [nM]
N[C@H]1CC[C@H](Nc2ccc(N3CCC(C(F)(F)F)CC3)cc2)CC1 [Compound 354, (1r,4r)-N1-(4-(4-(trifluoromethyl)piperidin-1-yl)phenyl)cyclohexane-1,4-diamine]	0.1 to 100	
N[C@H]1CC[C@@H](Nc2ccc(N3CCC(C(F)(F)F)CC3)cc2)CC1 [Compound 355, (1s,4s)-N1-(4-(4-(trifluoromethyl)piperidin-1-yl)phenyl)cyclohexane-1,4-diamine]	0.1 to 100	
N[C@H]1CC[C@H](CNc2ccc(N3CCC(C(F)(F)F)CC3)cc2)CC1 [Compound 356, N-(((1r,4r)-4-aminocyclohexyl)methyl)-4-(4-(trifluoromethyl)piperidin-1-yl)aniline]	0.1 to 100	
NC1CC2(C1)CC(Nc1ccc(N3CCC(C(F)(F)F)CC3)cc1)C2 (centres unmarked) [Compound 357, N2-(4-(4-(trifluoromethyl)piperidin-1-yl)phenyl)spiro[3.3]heptane-2,6-diamine]	0.1 to 100	
CC(C)C1CCN(c2ncc(NC3CC4(CC(N)C4)C3)cn2)CC1 (centres unmarked) [Compound 358, N2-(2-(4-isopropylpiperidin-1-yl)pyrimidin-5-yl)spiro[3.3]heptane-2,6-diamine]	0.1 to 100	
NC1CC2(C1)CC(Nc1cnc(N3CCC(C(F)(F)F)CC3)nc1)C2 (centres unmarked) [Compound 359, N2-(2-(4-(trifluoromethyl)piperidin-1-yl)pyrimidin-5-yl)spiro[3.3]heptane-2,6-diamine]	0.1 to 100	
CC(C)C1CCN(c2ncc(NC[C@H]3CC[C@H](N)CC3)cn2)CC1 [Compound 360, N-(((1r,4r)-4-aminocyclohexyl)methyl)-2-(4-isopropylpiperidin-1-yl)pyrimidin-5-amine]	0.1 to 100	
CC(C)C1CCN(c2ncc(NC[C@H]3CC[C@@H](N)CC3)cn2)CC1 [Compound 361, N-(((1s,4s)-4-aminocyclohexyl)methyl)-2-(4-isopropylpiperidin-1-yl)pyrimidin-5-amine]	0.1 to 100	
CC(C)C1CCN(c2ncc(NC3C[C@H]4CC(N)C[C@H]4C3)cn2)CC1 (stereo partly drawn) [Compound 362, (3aR, 6aS)-N2-(2-(4-isopropylpiperidin-1-yl)pyrimidin-5-yl) octahydropentalene-2,5-diamine]	0.1 to 100	
NC1C[C@@H]2CC(Nc3ccc(N4CCC(C(F)(F)F)CC4)cc3)C[C@@H]2C1 (stereo partly drawn) [Compound 363, (3aR, 6aS)-N2-(4-(4-(trifluoromethyl)piperidin-1-yl)phenyl) octahydropentalene-2,5-diamine]	0.1 to 100	
NC1CC2(C1)CC(Nc1ccc(N3CCC(C(F)(F)F)CC3)cc1F)C2 (centres unmarked) [Compound 364, N2-(2-fluoro-4-(4-(trifluoromethyl)piperidin-1-yl)phenyl)spiro[3.3]heptane-2,6-diamine]	0.1 to 100	
CNC(=O)C1CCC(Nc2ccc(N3CCC(C(F)(F)F)CC3)cc2)CC1 (centres unmarked) [Compound 365, N-methyl-4-((4-(4-(trifluoromethyl)piperidin-1-yl)phenyl)amino)cyclohexane-1-carboxamide]	0.1 to 100	
CN(C)C(=O)C1CCC(Nc2ccc(N3CCC(C(F)(F)F)CC3)cc2)CC1 (centres unmarked) [Compound 366, N,N-dimethyl-4-((4-(4-(trifluoromethyl)piperidin-1-yl)phenyl)amino)cyclohexane-1-carboxamide]	0.1 to 100	
CC(C)C1CCN(c2ncc(NC[C@H]3CC[C@H](NC(=O)C4CNC(=O)C4)CC3)cn2)CC1 (some centres unmarked) [Compound 367, N-((1r,4r)-4-(((2-(4-isopropylpiperidin-1-yl)pyrimidin-5-yl)amino)methyl)cyclohexyl)-5-oxopy rrolidine-3-carboxamide]	0.1 to 100	
CC(C)C1CCN(c2ncc(NC3C4CC5CC3CC(N)(C5)C4)cn2)CC1 (centres unmarked) [Compound 368, N4-(2-(4-isopropylpiperidin-1-yl)pyrimidin-5-yl)adamantane-1,4-diamine]	0.1 to 100	
CCC(C)(C)c1ccc(NC2CC3(CC(N)C3)C2)cc1 (centres unmarked) [Compound 369, N2-(4-(tert-pentyl)phenyl)spiro[3.3]heptane-2,6-diamine]	0.1 to 100	
CC(C)C1CCN(c2ncc(NC3C4CC5CC3CC(CN)(C5)C4)cn2)CC1 (centres unmarked) [Compound 370, N-(5-(aminomethyl)adamantan-2-yl)-2-(4-isopropylpiperidin-1-yl)pyrimidin-5-amine]	0.1 to 100	
Cc1nc(N2CCC(C(F)(F)F)CC2)ccc1NC[C@H]1CC[C@H](N)CC1 [Compound 371, N-(((1r,4r)-4-aminocyclohexyl)methyl)-2-methyl-6-(4-(trifluoromethyl)piperidin-1-yl)pyridin-3-amine]	0.1 to 100	
NC1C[C@@H]2CC(Nc3ccc(N4CCC(C(F)(F)F)CC4)cc3F)C[C@@H]2C1 (stereo partly drawn) [Compound 372, (3aR, 6aS)-N2-(2-fluoro-4-(4-(trifluoromethyl)piperidin-1-yl)phenyl)octahydropentalene-2,5-di amine]	0.1 to 100	
CCNC1C[C@@H]2CC(Nc3ccc(N4CCC(C(F)(F)F)CC4)cc3F)C[C@@H]2C1 (stereo partly drawn) [Compound 373, (3aR,6aS)-N2-ethyl-N5-(2-fluoro-4-(4-(trifluoromethyl)piperidin-1-yl)phenyl)octahydropentalene-2,5-diamine]	0.1 to 100	
O=C1NCC(C(=O)NC2CC3(C2)CC(Nc2ccc(N4CCC(C(F)(F)F)CC4)cc2)C3)N1 (centres unmarked) [Compound 374, 2-oxo-N-(6-((4-(4-(trifluoromethyl)piperidin-1-yl)phenyl)amino)spiro[3.3]heptan-2-yl)imidazo lidine-4-carboxamide]	0.1 to 100	
O=C1CC(C(=O)NC2CC3(C2)CC(Nc2ccc(N4CCC(C(F)(F)F)CC4)cc2)C3)CN1 (centres unmarked) [Compound 375]	0.1 to 100	
